From patent US20190111111A1, “Treatment of Cerebral Cavernous Malformations” (The Regents of the University of California, priority 2016, published 2019) come the findings set out here.

Entries after “also recorded” stand apart in the source; their conditions may differ.

Test [1] deals with Krit1^ECKO BMEC. Description: ZO-1 tight junction staining in BMEC after Krit1 inactivation (immunofluorescence). It counts as cell-based, mouse. The protocol: (§1) BMEC at passages 1-3 were maintained at 37° C. in 95% air and 5% CO2 and were grown to 85% confluence and treated for 48 h with 5 μM 4-hydroxy-tamoxifen (Sigma, H7904) after which the medium was replaced with medium lacking 4-hydroxy-tamoxifen and cells were harvested after 72 hr in culture. For TSP1 and 3TSR addition experiments, after 24 h in regular medium, the 5 nM mrTSP1 (R&D systems, 7859-TH), 20 nM 3TSR, or vehicle were added. After 48 hr a second dose of TSP1, 3TSR, or vehicle were added and cells were harvested after an additional 24 h (FIG. 11a-11d).
BMEC were grown to confluence on collagen coated cover glass (Fisher Scientific, 12-545-81) and cells were fixed for 10 min at room temperature with 4% paraformaldehyde (PFA) in phosphate-buffered saline (PBS; pH 7.4) and then permeabilized with 0.5% Triton X-100 in PBS for 5 min. […]
The slides were viewed with a high-resolution SP5 confocal microscope (Leica Microsystems) and the images were captured with Leica application suite (LAS) software (Leica Microsystems). […] The quantification analysis was performed using Volocity® software on high-resolution confocal images.

Test [2] has as its system Krit1^ECKO BMEC. Description: KLF2 and KLF4 mRNA in Krit1^ECKO BMEC (RT-qPCR). It counts as cell-based, mouse. Conditions: in vitro, FIG. 5d. The procedure: as §1
Primary BMEC, human umbilical vein endothelial cells (HUVEC) and freshly isolated brain microvasculature total RNA were isolated using Trizol reagent, according to the manufacturer's protocol (ThermoFisher). For gene expression analysis, single stranded cDNA was produced from 10 ng of total RNA of BMEC using SuperScript III First-Strand synthesis and random primers according to the manufacture's protocol (ThermoFisher). KAPPA SyberFast qPCR kit (Kapa Biosystems) and thermal cycler (CFX96 Real-Time System, Bio-Rad) were used to determine the relative levels of the genes analyzed (primer sequences not shown) according to the manufacturer's protocol. Actin mRNA levels were used as an internal control and the 2^−ΔΔCT method was used for analysis of the data. […]
(In general: In qPCR the cycle at which signal appears reflects the starting amount.)

Take `Cc1cc(C)c(/C=C2\C(=O)Nc3ccccc32)[nH]1` [SU5416, reference compound]: the “ZO1 junctional staining following Krit1 inactivation” value in the test on Krit1^ECKO BMEC [1] (2 μM SU5416, Krit1^ECKO BMEC, FIG. 13c) is “continuous ZO1 junctional staining”.
As to “TSP1: mouse recombinant full length thrombospondin 1 (R&D systems, 7859-TH), a large (~450 kDa) glycoprotein”, the “rise in KLF2 or KLF4 mRNA following Krit1 inactivation” value with Krit1^ECKO BMEC [2] was “Neither TSP1 nor 3TSR prevented”. Also, the “ZO-1 at BMEC tight junctions following Krit1 inactivation” value in the test on Krit1^ECKO BMEC [1] (5 nM mouse recombinant TSP1, Krit1^ECKO BMEC, FIG. 3a) is given as “continuous ZO1 junctional staining; also recorded: prevented the loss of ZO-1 from BMEC tight junctions”.
